Results from ChEMBL document CHEMBL3407450, “Design of new hybrid template by linking quinoline, triazole and dihydroquinoline pharmacophoric groups: A greener approach to novel polyazaheterocycles as cytotoxic agents” (Bioorg Med Chem Lett, 2015).

Legend:
[1] = tested on: A549; experiment: Cytotoxicity against human A549 cells assessed as cell viability after 48 hrs by MTT assay; assay type: functional, cell-based; conditions: A549, 48 h
[2] = tested on: MCF7; experiment: Cytotoxicity against human MCF7 cells assessed as cell viability after 48 hrs by MTT assay; assay type: functional, cell-based; conditions: MCF7, 48 h
[3] = tested on: HepG2; experiment: Cytotoxicity against human HepG2 cells assessed as cell viability after 48 hrs by MTT assay; assay type: functional, cell-based; conditions: HepG2, 48 h
[4] = tested on: DU-145; experiment: Cytotoxicity against human DU145 cells assessed as cell viability after 48 hrs by MTT assay; assay type: functional, cell-based; conditions: DU-145, 48 h
[5] = target: 3',5'-cyclic-AMP phosphodiesterase 4B (Homo sapiens) (UniProt Q07343); experiment: Inhibition of PDE4B (unknown origin) transfected into Sf9 cells at 30 uM by PDElight HTS cAMP phosphodiesterase assay
3',5'-cyclic-AMP phosphodiesterase 4B (Homo sapiens), sequence (Q07343 whole entry): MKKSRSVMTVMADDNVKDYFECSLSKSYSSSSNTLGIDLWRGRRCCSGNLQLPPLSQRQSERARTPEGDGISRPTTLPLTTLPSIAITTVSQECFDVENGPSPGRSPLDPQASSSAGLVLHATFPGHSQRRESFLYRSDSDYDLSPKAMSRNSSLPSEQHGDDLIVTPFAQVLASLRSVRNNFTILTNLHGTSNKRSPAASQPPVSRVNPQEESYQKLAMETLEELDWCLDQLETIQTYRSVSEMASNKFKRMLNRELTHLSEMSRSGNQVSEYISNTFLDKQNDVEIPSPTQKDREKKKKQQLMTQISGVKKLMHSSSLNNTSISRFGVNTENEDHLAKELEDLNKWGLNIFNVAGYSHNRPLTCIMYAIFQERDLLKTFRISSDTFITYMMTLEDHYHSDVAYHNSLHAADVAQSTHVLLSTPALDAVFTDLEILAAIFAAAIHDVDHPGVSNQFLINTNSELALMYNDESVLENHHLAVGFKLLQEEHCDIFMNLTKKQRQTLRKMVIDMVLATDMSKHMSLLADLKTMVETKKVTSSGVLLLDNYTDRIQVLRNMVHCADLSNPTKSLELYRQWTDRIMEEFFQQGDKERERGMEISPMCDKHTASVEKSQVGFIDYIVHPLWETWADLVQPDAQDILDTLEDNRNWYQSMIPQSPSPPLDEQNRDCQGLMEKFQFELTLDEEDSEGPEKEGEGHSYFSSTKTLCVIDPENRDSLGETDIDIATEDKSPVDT

[6] = target: 3',5'-cyclic-AMP phosphodiesterase 4D (Homo sapiens) (UniProt Q08499); experiment: Inhibition of PDE4D (unknown origin) transfected into Sf9 cells at 30 uM by PDElight HTS cAMP phosphodiesterase assay
3',5'-cyclic-AMP phosphodiesterase 4D (Homo sapiens), sequence (Q08499 whole entry): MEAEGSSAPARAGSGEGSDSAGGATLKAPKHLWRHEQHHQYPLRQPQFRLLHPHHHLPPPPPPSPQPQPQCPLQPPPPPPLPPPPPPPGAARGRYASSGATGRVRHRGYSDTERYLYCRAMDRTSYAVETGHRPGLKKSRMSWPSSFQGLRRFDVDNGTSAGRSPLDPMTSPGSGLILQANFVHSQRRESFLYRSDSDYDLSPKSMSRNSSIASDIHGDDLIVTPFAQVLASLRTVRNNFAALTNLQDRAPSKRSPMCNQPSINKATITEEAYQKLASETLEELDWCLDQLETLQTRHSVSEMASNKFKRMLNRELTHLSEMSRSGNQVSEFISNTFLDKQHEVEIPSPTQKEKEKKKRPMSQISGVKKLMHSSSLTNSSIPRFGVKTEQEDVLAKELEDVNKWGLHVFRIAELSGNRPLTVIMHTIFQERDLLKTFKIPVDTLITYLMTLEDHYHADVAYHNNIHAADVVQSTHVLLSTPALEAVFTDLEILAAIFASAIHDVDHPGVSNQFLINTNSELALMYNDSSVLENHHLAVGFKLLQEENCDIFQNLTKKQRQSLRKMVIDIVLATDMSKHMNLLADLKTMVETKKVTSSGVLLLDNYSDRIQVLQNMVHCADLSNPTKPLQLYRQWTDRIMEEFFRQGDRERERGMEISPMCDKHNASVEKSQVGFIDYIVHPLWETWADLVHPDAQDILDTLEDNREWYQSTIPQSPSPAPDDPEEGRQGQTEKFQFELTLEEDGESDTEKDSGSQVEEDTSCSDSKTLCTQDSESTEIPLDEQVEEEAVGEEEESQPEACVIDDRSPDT

**Q.** CC1=CC(C)(C)N(Cc2cn(Cc3cc4ccccc4nc3Cl)nn2)c2ccccc21 was tested. Which IC50 [1] did it give?
**A.** 17.5 µM

**Q.** And the IC50 [2]?
**A.** 16.2 µM

**Q.** And the IC50 [3]?
**A.** 13.1 µM

**Q.** What about the IC50 [4] of the same molecule?
**A.** 19.3 µM

**Q.** With CC1=CC(C)(C)N(Cc2cn(Cc3cc4ccc(C)cc4nc3Cl)nn2)c2ccccc21 as the molecule, how does the IC50 [1] read?
**A.** 11.1 µM

**Q.** And the IC50 [2]?
**A.** 10.8 µM

**Q.** And the IC50 [3]?
**A.** 26.2 µM

**Q.** What about the IC50 [4] of the same molecule?
**A.** 27 µM

**Q.** What does the source list for COc1ccc2nc(Cl)c(Cn3cc(CN4c5ccc(C)cc5C(C)=CC4(C)C)nn3)cc2c1?
**A.** IC50 [1]: 15.5 µM; IC50 [2]: 14.3 µM; IC50 [3]: 21.6 µM; IC50 [4]: 19.8 µM; inhibition [5]: 88%; inhibition [6]: 52%

**Q.** For COc1ccc2nc(Cl)c(Cn3cc(CN4c5ccccc5C(C)=CC4(C)C)nn3)cc2c1, which IC50 [1] is on record?
**A.** 33.4 µM

**Q.** And the IC50 [2]?
**A.** 38.7 µM

**Q.** And the IC50 [3]?
**A.** 41.2 µM

**Q.** And the IC50 [4]?
**A.** 34 µM

**Q.** COc1ccc2c(c1)C(C)=CC(C)(C)N2Cc1cn(Cc2cc3cc(OC)ccc3nc2Cl)nn1 was tested. Which IC50 [1] did it give?
**A.** 30.9 µM

**Q.** And the IC50 [2]?
**A.** 26.4 µM

**Q.** And the IC50 [3]?
**A.** 27.2 µM

**Q.** What about the IC50 [4] of the same molecule?
**A.** 28.6 µM

**Q.** What does the source list for CC1=CC(C)(C)N(Cc2cn(Cc3cc4cc(C)ccc4nc3Cl)nn2)c2ccccc21?
**A.** IC50 [1]: 29.4 µM; IC50 [2]: 30.6 µM; IC50 [3]: 23 µM; IC50 [4]: 31.3 µM

**Q.** COc1cccc2c1C(=O)c1c(O)c3c(c(O)c1C2=O)C[C@@](O)(C(=O)CO)C[C@@H]3O[C@H]1C[C@H](N)[C@H](O)[C@H](C)O1 [DOXORUBICIN] was tested. Which IC50 [1] did it give?
**A.** 9.7 µM

**Q.** And the IC50 [2]?
**A.** 0.8 µM

**Q.** And the IC50 [3]?
**A.** 3.5 µM

**Q.** And the IC50 [4]?
**A.** 0.5 µM
